Test results reported in ChEMBL document CHEMBL1201862, “PubChem BioAssay data set” (2004).
The source made the active and inactive calls. Rule as the data show it, for most assays here: actives have a measured EC50 and inactives only a lower limit.

Legend:
[1] = molecular target: T1, Aminopeptidase N (Plasmodium falciparum FcB1/Columbia, UniProt O96935); experiment: malaria alanyl aminopeptidase activity blockers – biochemical, fluorogenic H-Leu-NHMec substrate, 1536-well (AID 1445); set-up: species or system Plasmodium falciparum 3D7, 3D7
T1 sequence (O96935 whole entry): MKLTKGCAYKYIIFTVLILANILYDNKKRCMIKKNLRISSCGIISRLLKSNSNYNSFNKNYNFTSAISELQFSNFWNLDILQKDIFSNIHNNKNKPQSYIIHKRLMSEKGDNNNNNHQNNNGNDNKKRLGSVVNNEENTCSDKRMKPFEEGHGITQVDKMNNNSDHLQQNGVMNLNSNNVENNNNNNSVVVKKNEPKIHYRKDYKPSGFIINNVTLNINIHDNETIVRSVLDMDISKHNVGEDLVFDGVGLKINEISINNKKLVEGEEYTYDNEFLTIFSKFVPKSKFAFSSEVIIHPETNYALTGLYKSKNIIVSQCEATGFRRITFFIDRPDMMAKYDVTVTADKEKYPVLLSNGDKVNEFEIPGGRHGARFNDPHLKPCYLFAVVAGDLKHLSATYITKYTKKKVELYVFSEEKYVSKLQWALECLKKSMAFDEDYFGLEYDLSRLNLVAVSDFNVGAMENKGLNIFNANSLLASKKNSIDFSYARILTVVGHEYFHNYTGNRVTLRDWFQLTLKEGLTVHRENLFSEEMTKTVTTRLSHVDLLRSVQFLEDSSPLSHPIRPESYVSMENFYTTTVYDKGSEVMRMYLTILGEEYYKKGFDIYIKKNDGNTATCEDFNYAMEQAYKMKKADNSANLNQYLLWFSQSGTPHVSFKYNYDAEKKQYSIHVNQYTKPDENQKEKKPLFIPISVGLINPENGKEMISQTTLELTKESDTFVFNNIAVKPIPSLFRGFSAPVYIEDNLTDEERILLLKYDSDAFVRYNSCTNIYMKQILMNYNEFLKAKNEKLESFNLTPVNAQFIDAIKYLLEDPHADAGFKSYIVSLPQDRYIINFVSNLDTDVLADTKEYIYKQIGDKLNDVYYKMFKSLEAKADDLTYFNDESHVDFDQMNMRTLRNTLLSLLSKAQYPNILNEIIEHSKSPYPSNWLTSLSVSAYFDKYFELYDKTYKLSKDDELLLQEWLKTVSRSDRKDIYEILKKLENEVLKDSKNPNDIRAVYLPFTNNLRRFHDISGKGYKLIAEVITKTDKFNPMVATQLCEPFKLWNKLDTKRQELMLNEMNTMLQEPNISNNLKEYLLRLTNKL

[2] = molecular target: T2, Leucine aminopeptidase (Plasmodium falciparum 3D7, UniProt Q8IL11); experiment: P. falciparum M17LAP inhibitors, primary screen, biochemical, fluorogenic H-Leu-NHMec substrate, 1536-well (AID 1619); type: functional
T2 sequence (Q8IL11 whole entry): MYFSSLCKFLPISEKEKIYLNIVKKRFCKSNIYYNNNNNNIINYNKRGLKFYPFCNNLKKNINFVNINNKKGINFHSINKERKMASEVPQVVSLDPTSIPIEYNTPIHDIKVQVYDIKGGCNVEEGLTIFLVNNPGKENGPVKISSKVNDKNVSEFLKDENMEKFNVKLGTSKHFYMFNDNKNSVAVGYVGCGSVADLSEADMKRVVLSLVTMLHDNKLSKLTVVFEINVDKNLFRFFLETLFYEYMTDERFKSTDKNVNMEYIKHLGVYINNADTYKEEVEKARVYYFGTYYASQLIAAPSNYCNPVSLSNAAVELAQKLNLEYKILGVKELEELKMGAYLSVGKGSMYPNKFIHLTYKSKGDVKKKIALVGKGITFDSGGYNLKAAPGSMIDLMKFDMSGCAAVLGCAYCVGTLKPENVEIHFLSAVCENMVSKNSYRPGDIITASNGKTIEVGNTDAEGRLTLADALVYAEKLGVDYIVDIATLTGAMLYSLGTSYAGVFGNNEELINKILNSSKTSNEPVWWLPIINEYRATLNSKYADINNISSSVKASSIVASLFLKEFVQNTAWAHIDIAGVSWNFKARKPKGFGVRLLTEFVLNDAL

[3] = Trypanosoma cruzi growth suppression in host cells – NIH3T3 host cells, beta-gal luminescence, confirmation (AID 2044); type: functional, cell-based;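 also: intracellular parasites grown in NIH/3T3 mouse fibroblasts as host cells; luminescent beta-galactosidase reporter signal from transgenic T. cruzi replicating inside host cells; inhibitors lower the luminescence signal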
[4] = molecular target: Voltage-dependent T-type calcium channel subunit alpha-1H (Homo sapiens, UniProt O95180); type: functional;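 also: channel activity triggered by adding a high calcium stimulation buffer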
Chain of Voltage-dependent T-type calcium channel subunit alpha-1H (O95180 whole entry): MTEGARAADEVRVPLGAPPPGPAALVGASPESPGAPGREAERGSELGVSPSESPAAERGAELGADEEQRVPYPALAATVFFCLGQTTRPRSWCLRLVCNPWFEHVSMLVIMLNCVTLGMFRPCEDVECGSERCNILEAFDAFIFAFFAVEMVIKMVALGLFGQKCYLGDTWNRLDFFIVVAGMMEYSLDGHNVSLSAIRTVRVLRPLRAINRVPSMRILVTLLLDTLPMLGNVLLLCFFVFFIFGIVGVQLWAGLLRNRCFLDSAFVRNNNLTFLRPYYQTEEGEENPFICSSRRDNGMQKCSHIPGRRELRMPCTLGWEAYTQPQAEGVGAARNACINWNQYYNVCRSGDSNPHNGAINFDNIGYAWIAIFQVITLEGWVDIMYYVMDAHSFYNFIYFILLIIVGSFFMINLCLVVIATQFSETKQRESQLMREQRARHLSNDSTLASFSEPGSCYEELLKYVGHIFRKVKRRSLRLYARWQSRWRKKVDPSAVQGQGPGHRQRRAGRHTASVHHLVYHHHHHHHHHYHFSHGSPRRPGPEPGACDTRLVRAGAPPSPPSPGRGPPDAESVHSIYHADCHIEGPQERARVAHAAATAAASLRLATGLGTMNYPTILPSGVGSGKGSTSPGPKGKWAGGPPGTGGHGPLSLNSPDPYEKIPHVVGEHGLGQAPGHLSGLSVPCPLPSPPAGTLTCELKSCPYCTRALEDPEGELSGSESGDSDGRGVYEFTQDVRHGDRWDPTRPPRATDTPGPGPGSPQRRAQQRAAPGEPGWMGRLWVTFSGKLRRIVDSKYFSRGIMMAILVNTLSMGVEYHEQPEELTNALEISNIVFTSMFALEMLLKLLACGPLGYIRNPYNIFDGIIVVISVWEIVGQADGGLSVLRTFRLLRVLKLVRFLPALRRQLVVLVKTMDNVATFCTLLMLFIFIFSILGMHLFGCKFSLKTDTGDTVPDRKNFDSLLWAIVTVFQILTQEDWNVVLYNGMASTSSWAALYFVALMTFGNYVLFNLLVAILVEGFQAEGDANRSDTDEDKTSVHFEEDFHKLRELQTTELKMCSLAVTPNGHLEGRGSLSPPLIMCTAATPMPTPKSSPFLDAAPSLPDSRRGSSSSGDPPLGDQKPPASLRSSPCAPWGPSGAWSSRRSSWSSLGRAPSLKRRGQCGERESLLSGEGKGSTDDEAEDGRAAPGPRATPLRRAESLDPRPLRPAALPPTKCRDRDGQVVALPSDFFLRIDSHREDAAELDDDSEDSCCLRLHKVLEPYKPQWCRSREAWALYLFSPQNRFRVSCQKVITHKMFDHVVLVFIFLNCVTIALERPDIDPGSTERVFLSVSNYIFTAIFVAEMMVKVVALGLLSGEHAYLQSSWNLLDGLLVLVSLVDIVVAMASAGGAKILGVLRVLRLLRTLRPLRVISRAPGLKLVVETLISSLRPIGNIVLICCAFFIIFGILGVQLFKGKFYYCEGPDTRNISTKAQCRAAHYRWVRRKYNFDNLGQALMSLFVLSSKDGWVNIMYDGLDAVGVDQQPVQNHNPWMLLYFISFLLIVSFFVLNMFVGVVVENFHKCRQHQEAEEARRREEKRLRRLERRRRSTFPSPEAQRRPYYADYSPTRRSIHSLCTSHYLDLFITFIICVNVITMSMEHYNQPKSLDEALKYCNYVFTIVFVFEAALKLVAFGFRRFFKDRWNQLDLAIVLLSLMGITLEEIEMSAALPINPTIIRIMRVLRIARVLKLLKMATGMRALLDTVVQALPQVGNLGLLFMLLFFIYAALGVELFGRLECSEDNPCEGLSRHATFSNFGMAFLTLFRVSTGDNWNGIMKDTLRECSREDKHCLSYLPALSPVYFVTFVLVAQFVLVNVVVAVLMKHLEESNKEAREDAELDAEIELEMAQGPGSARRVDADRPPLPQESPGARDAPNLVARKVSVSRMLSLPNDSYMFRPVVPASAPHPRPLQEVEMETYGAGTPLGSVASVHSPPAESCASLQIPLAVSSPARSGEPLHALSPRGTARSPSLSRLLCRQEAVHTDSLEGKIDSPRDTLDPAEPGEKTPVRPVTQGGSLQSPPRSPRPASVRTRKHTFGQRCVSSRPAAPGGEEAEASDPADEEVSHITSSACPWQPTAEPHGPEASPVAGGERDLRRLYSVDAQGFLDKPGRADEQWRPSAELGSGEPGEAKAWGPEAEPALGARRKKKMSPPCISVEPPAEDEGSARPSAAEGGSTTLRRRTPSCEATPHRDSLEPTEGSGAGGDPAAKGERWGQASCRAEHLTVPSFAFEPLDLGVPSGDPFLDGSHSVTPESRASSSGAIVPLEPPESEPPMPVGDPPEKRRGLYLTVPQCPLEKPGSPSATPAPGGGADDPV

[5] = NIH3T3 cell viability loss – ATP luminescence, mouse fibroblasts, counter-screen, dose response (AID 2010); type: functional, cell-based;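 also: cells exposed to compound for about 90 hours before reading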
[6] = tested on: Streptococcus sp. 'group A'; experiment: Streptococcus pyogenes SK(-)GAS viability under kanamycin – luminescence, BacTiterGlo, confirmation, counter-screen for streptokinase expression inhibitor project, dose response (AID 1900); type: functional, organism-based
[7] = fluconazole-exposed Candida albicans growth modulators – fluorescence, retest, confirmation (AID 2467); type: functional, cell-based
[8] = molecular target: T3, Streptokinase A (Streptococcus pyogenes serotype M1, UniProt P10520); experiment: viability-normalized secreted streptokinase activity reduction – plasminogen activation absorbance, OD405, dose response (AID 1914); type: functional, Streptococcus pyogenes M1 GAS;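 also: secreted streptokinase activity via plasminogen activation per viability signal from cell pellet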
T3 sequence (P10520 whole entry): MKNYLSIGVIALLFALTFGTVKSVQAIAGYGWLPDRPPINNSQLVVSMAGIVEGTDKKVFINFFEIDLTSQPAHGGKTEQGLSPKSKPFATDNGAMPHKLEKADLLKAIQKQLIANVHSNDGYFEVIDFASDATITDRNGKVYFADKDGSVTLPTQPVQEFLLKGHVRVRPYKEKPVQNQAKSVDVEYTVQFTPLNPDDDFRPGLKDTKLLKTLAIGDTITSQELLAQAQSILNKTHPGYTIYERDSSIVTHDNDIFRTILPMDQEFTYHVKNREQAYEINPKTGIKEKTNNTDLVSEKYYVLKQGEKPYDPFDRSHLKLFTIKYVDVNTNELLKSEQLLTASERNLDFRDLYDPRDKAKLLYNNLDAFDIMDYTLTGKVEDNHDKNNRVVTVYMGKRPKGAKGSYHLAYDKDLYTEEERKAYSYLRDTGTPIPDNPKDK

[9] = molecular target: Heat shock protein HSP 90-alpha (Homo sapiens, UniProt P07900); type: functional, organism-based
[10] = NIH-3T3 fibroblast cytotoxicity, dose response, cytotoxicity control, cell-based, fluorescence, Alamar Blue, secondary assay (AID 2327); type: functional;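 also: NIH-3T3 mouse fibroblasts cultured with fluconazole at 8 µg/mL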
[11] = molecular target: NS3 (Hepatitis C virus, UniProt A3EZJ3); experiment: PubChem AID 2173; set-up: species or system Hepacivirus hominis
Chain of NS3 (A3EZJ3 whole entry): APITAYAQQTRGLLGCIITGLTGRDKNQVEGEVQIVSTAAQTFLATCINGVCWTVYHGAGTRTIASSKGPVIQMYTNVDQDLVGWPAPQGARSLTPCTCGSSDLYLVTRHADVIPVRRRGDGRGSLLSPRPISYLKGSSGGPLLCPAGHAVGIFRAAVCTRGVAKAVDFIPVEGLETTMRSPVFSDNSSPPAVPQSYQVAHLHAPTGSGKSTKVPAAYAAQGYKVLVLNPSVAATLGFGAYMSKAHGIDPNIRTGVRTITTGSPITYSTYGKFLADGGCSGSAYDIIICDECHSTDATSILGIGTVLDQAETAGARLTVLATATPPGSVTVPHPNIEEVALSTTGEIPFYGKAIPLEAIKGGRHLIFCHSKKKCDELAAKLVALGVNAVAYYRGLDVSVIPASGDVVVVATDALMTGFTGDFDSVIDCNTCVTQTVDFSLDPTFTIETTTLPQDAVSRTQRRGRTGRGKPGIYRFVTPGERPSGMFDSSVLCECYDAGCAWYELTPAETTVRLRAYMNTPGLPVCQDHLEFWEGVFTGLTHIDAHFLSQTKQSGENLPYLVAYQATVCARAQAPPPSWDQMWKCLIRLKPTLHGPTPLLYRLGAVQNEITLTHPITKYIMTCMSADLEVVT

[12] = tested on: Streptococcus; experiment: GAS UMAA2166 growth inhibition – luminescence, BacTiterGlo, counter-screen for streptokinase expression inhibitor project, dose response (AID 1915); type: functional, organism-based;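 also: potency for reduction of bacterial viability or growth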
[13] = luciferase reporter signal suppression in cells – H4 neuroglioma cells, luminescence, dose response (AID 1990); type: functional, cell-based
[14] = molecular target: T4, Luciferin 4-monooxygenase (Photinus pyralis, UniProt P08659); experiment: Counter Screen for Luciferase-based Assay Positives. [Related pubchem assays: 620, 618, 411 ]
T4 sequence (P08659 whole entry): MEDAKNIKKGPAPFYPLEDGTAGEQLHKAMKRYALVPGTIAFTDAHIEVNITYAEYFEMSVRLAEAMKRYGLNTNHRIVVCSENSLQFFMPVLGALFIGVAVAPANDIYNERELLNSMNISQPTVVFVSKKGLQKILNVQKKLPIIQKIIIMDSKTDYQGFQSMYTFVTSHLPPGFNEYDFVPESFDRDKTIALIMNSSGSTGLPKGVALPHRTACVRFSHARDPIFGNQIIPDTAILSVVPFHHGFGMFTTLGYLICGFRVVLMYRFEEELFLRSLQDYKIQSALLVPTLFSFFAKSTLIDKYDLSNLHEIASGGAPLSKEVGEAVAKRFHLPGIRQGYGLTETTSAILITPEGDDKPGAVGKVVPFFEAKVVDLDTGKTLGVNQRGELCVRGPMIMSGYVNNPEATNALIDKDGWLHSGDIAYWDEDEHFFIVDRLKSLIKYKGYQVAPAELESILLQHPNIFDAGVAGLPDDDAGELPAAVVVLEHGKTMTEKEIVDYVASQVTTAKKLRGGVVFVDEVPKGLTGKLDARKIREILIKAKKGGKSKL

[15] = tested on: HT-1080; experiment: HT1080 cell viability loss – fluorescence readout (AID 620); type: functional, cell-based; settings: Homo sapiens
[16] = HEK-293T cell viability reduction – luminescence, B-cell screen hits, cytotoxicity control for BCR NF-kB inhibitor project, dose response (AID 489021); type: functional, cell-based;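 also: HEK-293T cells carrying an NF-kB luciferase reporter; cells exposed to compound for about 14 hours before viability readout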
[17] = alpha-synuclein stem-loop luciferase translation blockers – H4 neuroglioma cells, luminescence, confirmation (AID 1988); type: functional, cell-based
[18] = A Cell Based Secondary Assay To Explore Cytotoxicity of Compounds that Sensitize Mycobacterium Tuberculosis to Beta-Lactam Antibiotics.; type: functional
[19] = tested on: BJ; experiment: BJ-TERT-LT-ST fibroblast viability loss – cell-based, RAS-independent, luminescence, dose response (AID 1935); type: functional; settings: Homo sapiens;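 also: BJ fibroblasts immortalized with TERT plus LT and ST oncogenes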
[20] = tested on: BJ; experiment: BJ-TERT fibroblast viability loss – cell-based, RAS-independent, luminescence, dose response (AID 1933); type: functional; settings: Homo sapiens
[21] = HEK-293T viability loss after treatment – luminescence, T-cell screen hits, cytotoxicity control for TCR NF-kB inhibitor project, dose response (AID 489026); type: functional, cell-based;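 also: cells exposed to compound about 14 hours before the viability readout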
[22] = Luminescence Cell-Based Dose Confirmation HTS to Identify Inhibitors of Platelet Dense Granule Release. [Related pubchem assays: 1663 (Primary HTS), 1678 (Summary of Project)]; type: functional
[23] = molecular target: T4, Luciferin 4-monooxygenase; experiment: inhibition of purified Photinus pyralis luciferase – biochemical, luminescence, dose response (AID 1891)
[24] = tested on: BJ; experiment: cells; type: functional, cell-based; settings: Homo sapiens
[25] = loss of viability in HepG2 cells – cell-based, CellTiter-Glo, cherry-picked, cytotoxicity control for Shn3 inhibitor project, dose response (AID 624134); type: functional
[26] = DRD fibroblast viability loss – cell-based, non-viral oncogenic, luminescence, dose response (AID 1934); type: functional; settings: Homo sapiens
[27] = reduction of Shn3 3'UTR-driven luciferase in osteoblasts – cell-based, Clone20 osteoblasts, firefly luciferase, cherry-picked, dose response (AID 624132); type: functional;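 also: firefly luciferase luminescence from reporter carrying the Shn3 3'UTR in osteoblasts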
[28] = tested on: BJ; experiment: growth inhibition of engineered Ras-driven BJ cells – cell-based, alamar blue fluorescence, cherrypicked samples, dose response (AID 2631); type: functional; settings: Homo sapiens;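 also: confirmatory dose-response assay in RAS-dependent BJ fibroblasts engineered with TERT, LT and ST, with cytotoxicity read by fluorescence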
[29] = tested on: HEK293; experiment: EBV LMP1 TES2 canonical NF-kB signalling blockers – cell-based, HEK293, luciferase, cherry-pick, dose response (AID 588343); type: functional; settings: Homo sapiens
[30] = tested on: INS1; experiment: INS-1E survival protection against cytokine death – cell-based, luminescence, retest, dose response (AID 449756); type: functional; settings: Rattus norvegicus;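 also: cell death triggered by IL-1 beta plus TNF-alpha plus IFN-gamma mixture; protective hits raise ATP signal compared with cytokine alone wells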
[31] = Luminescence Cell-Based Dose Response HTS to Identify Inhibitors of 5'UTR Stem-Loop Driven Prion Protein mRNA Translation in H4 Neuroglioblastoma Cells. [Related pubchem assays: 1827 (Project Summary), 1813 (Primary HTS)]; type: functional
[32] = viability of PTEN-deleted HCT116 cells – cell-based, HCT116 PTEN knockout, dose response (AID 1047); type: functional;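 also: HCT116 colon tumor cells with PTEN knocked out; cells exposed to compound for 60 hours before readout; potency for loss of cell viability measured by luminescence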
[33] = viability of HCT116 lacking mutant beta-catenin – cell-based, human colon tumor, dose response (AID 1045); type: functional;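 also: HCT116 colon tumor cells with beta catenin knocked out; cells exposed to compound for 60 hours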
[34] = HIV-1 Vif–A3G interaction blockers – biochemical, TR-FRET, GST-Vif 1-94, biotin-A3G peptide, dose response retest, primary screen (AID 1117319); type: functional;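 also: TR-FRET signal of purified GST-Vif binding a biotinylated A3G peptide; inhibitors lower the FRET signal by blocking Vif and A3G binding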
[35] = tested on: Escherichia coli; experiment: microbe, parasite or virus in culture

O=C(NCc1ccccc1)c1ccc2c(=O)[nH]c3c(C(=O)NCC4CCCO4)sc(=S)n3c2c1 (stereo not drawn)
IC50 [1]: 29.2 µM (active) | IC50 [2]: 8.61 µM (active)

Cc1ccc(NC(=O)C(Cc2ccccc2)N2C(=O)C3C4CCC(C4)C3C2=O)cc1Cl (stereo not drawn)
EC50 [3]: 871 nM (active) | EC50 [4]: 5.73 µM (active) | EC50 [5]: > 60 µM (not active)

Cc1ccc(/C=C/C(=O)c2ccccc(=O)c2O)c(C)c1
EC50 [6]: 5.22 µM (active) | EC50 [7]: 1.46 µM (active) | EC50 [8]: > 150 µM (not active) | AC50 [9]: 2.05 µM (active) | EC50 [10]: > 160 µM (inactive) | IC50 [11]: 2.9 µM (active) | EC50 [12]: 7.6 µM (active)

Cc1nc2cc(-c3cccc(F)c3)nn2c(C)c1CCC(=O)NC(C)CCc1ccco1 (stereo not drawn)
EC50 [13]: 2.36 µM (active) | EC50 [14]: 270 nM (active) | EC50 [15]: > 50 µM (not active) | IC50 [16]: > 80 µM (inactive) | EC50 [17]: 5.87 µM (active)

O=C1OC(c2ccco2)=N/C1=C\c1ccc(-c2cccc(C(F)(F)F)c2)o1
IC50 [11]: 22.1 µM (not active)

O=C1N=C(N2CCCC2)S/C1=C\c1cccc(Br)c1
CC50 [18]: > 40 µM (active)

O=C(Nc1nc2nc(-c3ccccc3)cc(-c3ccccc3)n2n1)c1ccco1
IC50 [16]: > 80 µM (inactive)

COc1ccc(-c2csc(Nc3ncccc3C)n2)cc1OC
CC50 [18]: > 40 µM (active)

COc1cc(/C=C/C(=O)OCC(=O)Nc2cc(C)c(C)cc2[N+](=O)[O-])ccc1O
CC50 [18]: > 40 µM (active)

Cc1ccc(-c2nc(-c3ccccn3)no2)cc1
EC50 [19]: 17.4 µM (active) | EC50 [20]: 7.04 µM (active) | IC50 [21]: > 80 µM (inactive) | EC50 [14]: 810 nM (active) | EC50 [22]: 2.52 µM (active) | EC50 [23]: 593 nM (active) | EC50 [15]: > 50 µM (not active) | EC50 [24]: 5.39 µM (active) | AC50 [25]: 8.99 µM (active) | EC50 [26]: 5.41 µM (active) | AC50 [27]: 1.96 µM (active)

Cc1ccc(-c2noc(CSc3nnc(Cc4ccccc4)n3-c3ccc(Cl)cc3)n2)cc1
EC50 [4]: 4.98 µM (active)

Cc1cccn2c(=O)c3cc(C(=O)NC4CCCCC4)c(=N)n(CCN4CCOCC4)c3nc12
IC50 [16]: > 80 µM (inactive)

ClCc1nnc(-c2ccccc2)o1
IC50 [16]: > 80 µM (inactive)

COc1cccc(C(=O)/C=C/Nc2cccc(O)c2)c1
EC50 [14]: 560 nM (active) | EC50 [22]: 2.07 µM (active) | EC50 [23]: 1380 nM (active) | EC50 [15]: > 50 µM (not active)

CCCCC/N=C\c1c(C)nn(-c2nc3ccccc3s2)c1O
EC50 [13]: 9.33 µM (inconclusive) | EC50 [28]: > 133 µM (inactive) | EC50 [19]: 4.84 µM (active) | EC50 [20]: 1.26 µM (active) | AC50 [29]: 3.89 µM (active) | EC50 [14]: 1930 nM (active) | AC50 [30]: 2.69 µM (active) | EC50 [15]: > 50 µM (not active) | EC50 [31]: 6.84 µM (active) | EC50 [24]: 2.32 µM (active) | EC50 [26]: 2.01 µM (active) | EC50 [17]: 7.25 µM (active)

C/C(=N/NC(=O)c1ccc(Cl)s1)c1ccc(NC(=O)COc2ccc(Cl)cc2)cc1
EC50 [32]: 24 µM (active) | EC50 [33]: 22.2 µM (active) | CC50 [18]: > 40 µM (active)

CCc1ccc(-c2cc(C(=O)Nc3ccc(S(=O)(=O)NC(C)=O)cc3)c3ccccc3n2)cc1
IC50 [2]: 7.8 µM (active) | IC50 [34]: > 100 µM (active) | AC50 [35]: 38.6 µM (active)
